From patent US20250017958A1, “COMBINATORIAL THERAPEUTIC APPROACH FOR FRIEDREICH'S ATAXIA” (University of Florida Research Foundation, Incorporated, priority 2021, published 2025)
Entries after “also recorded” stand apart in the source; their conditions may differ.

Assays:
[1] = test system: iron metabolism-related genes; assay: Expression of iron metabolism-related genes in cell lines (Real-time PCR); assay type: cell-based, human; conditions: various cell lines, including FRDA patient fibroblast cell lines
Description: FIG. 2A. Graphs illustrating expression levels of frataxin (FXN) and various iron metabolism-related genes in control fibroblasts (age and sex matched) or fibroblasts from a patient with Friedreich's Ataxia (FRDA) treated with vehicle or 75 μM quercetin. Expression levels were determined using Real-time PCR and normalized to Hprtl. Experiments were conducted in triplicates and values expressed as mean±SEM. One-way ANOVA and 0.05**

NRF2 [2] = assay: NRF2 expression in FRDA patient fibroblasts (Western blot, qPCR); assay type: cell-based, human
From the text: (§1) FIG. 2B. […] N=3. One-way ANOVA and Welch's t-test, ±SEM. *p≤0.05, **p≤0.01, ***p 0.001.
(§2) FIG. 3A-B. Western blot analysis of FXN and NRF2 in FRDA cells and FRDAkd mice after quercetin treatment.

[3] = previous studies (Lesjak M et al. 2019); cited from earlier work
FRDAkd mice = assay: Survival of FRDAkd mice after FXN knockdown (DOX); assay type: in vivo, mouse; conditions: combination versus individual treatment
Description: FIG. 4. […] No mortality was observed FRDAkd mice (DOX) treated with quercetin, taurine, and EGCG. FRDAkd mice were treated with doxycycline (DOX for FXN knockdown) or with doxycycline plus 100 mg/kg/day taurine, 35 mg/kg/day quercetin, and 4.6 mg/kg/day EGCG, and 0.5 mg/kg/day of ferrous sulfate for 16 weeks. N=10 animals per group.

NRF2 [4] = assay: NRF2 expression in tissues of FRDAkd mice (Western blot); assay type: in vivo, mouse; conditions: for expression of NRF2 (Western blot): 35 mg/kg/day quercetin, 625 mg/kg doxycycline
Description: as §2
(§3) FIG. 3C-D. Western blot analysis of FXN and NRF2 in FRDA cells and FRDAkd mice after quercetin treatment. […] Tg Low Dox animals were treated with 625 mg/kg doxycycline (FXN knockdown) and Tg Low Dox+Quercetin animal was provided with 625 mg/kg doxycycline plus 35 mg/kg/day of quercetin. […] Overall, quercetin increased the expression of FXN and NRF2 in both in vitro and in vivo conditions.

FXN [5] = assay: FXN expression in tissues of FRDAkd mice (Western blot); assay type: in vivo, mouse; conditions: for expression of FXN (Western blot): 35 mg/kg/day quercetin, 625 mg/kg doxycycline
Description: as §2, §3

FXN [6] = assay: FXN expression in FRDA patient fibroblasts (Western blot, qPCR); assay type: cell-based, human
Description: FIG. 2A. […] Expression levels were determined using Real-time PCR and normalized to Hprtl. Experiments were conducted in triplicates and values expressed as mean±SEM. One-way ANOVA and 0.05**
as §1, §2, §3

NRF2 [7] = conditions: FRDA patients with moderate dysfunction (Lynch D R et al. 2021); cited from earlier work
FXN [8] = conditions: phase 3 randomized controlled trial, FRDA; cited from earlier work
[9] = FRDA fibroblast cell line, 24 hours quercetin, 75 μM and 100 μM
[10] = FRDA patient fibroblast cell lines (in vitro), summary statement
[11] = fibroblasts from patients with FRDA, quercetin dose series
[12] = several tissues from quercetin-treated FRDAkd mice (in vivo), summary statement

Molecule: O=c1c(O)c(-c2ccc(O)c(O)c2)oc2cc(O)cc(O)c12 [quercetin, 3,3′,4′,5,7-Pentahydroxyflavone]
- expression of several genes involved in iron metabolism [1]: increase expression
- expression of NRF2 (Western blot) (NRF2 [2]; [9]): Increased expression
- NRF2 expression (NRF2 [2]; [10]): increase; also recorded: enhanced
- NRF2 marker gene expression (qPCR) (NRF2 [2]; [11]): dose-dependent effects
- serum and tissue iron [3]: depletion
- survival in mouse FRDA models (FRDAkd mice): did not improve survival rates
- expression of NRF2 (Western blot) (NRF2 [4]; FRDAkd mice heart, eight weeks): Increased expression
- expression of NRF2 (Western blot) (NRF2 [4]; FRDAkd mice liver, three weeks): Increased expression
- NRF2 expression (NRF2 [4]; [12]): increase; also recorded: enhanced
- expression of FXN (Western blot) (FXN [5]; FRDAkd mice heart, eight weeks): Increased expression
- expression of FXN (Western blot) (FXN [5]; FRDAkd mice liver, three weeks): Increased expression
- FXN expression (FXN [5]; [12]): increase; also recorded: enhanced
- expression of FXN (Western blot, independent replication) (FXN [6]; FRDA fibroblast cell line, 24 hours quercetin, 7 μM dose): increased expression
- expression of FXN (Western blot) (FXN [6]; [9]): Increased expression
- FXN expression (FXN [6]; [10]): increase; also recorded: enhanced
- FXN marker gene expression (qPCR) (FXN [6]; [11]): dose-dependent effects

Molecule: CC1(C)CC[C@]2(NC(=O)C(C)(F)F)CC[C@]3(C)[C@H](C(=O)C=C4[C@@]5(C)C=C(C#N)C(=O)C(C)(C)[C@@H]5CC[C@]43C)[C@@H]2C1 [omaveloxolone]
- neurological function (NRF2 [7]): improved

Molecule: O=C(O[C@@H]1Cc2c(O)cc(O)cc2O[C@@H]1c1cc(O)c(O)c(O)c1)c1cc(O)c(O)c(O)c1 [EGCG, (2R,3R)-3′,4′,5,5′,7-Pentahydroxyflavan-3-yl 3,4,5-trihydroxybenzoate]
- survival in mouse FRDA models (FRDAkd mice): did not improve survival rates

Molecule: NCCS(=O)(=O)O [taurine, 2-Aminoethane-1-sulfonic acid]
- survival in mouse FRDA models (FRDAkd mice): did not improve survival rates

B1: interferon γ-1b: treatment option for FRDA to increase FXN levels, dropped at phase 3 (protein, UniProt P01579 24-161, looked up)
Interferon gamma: QDPYVKEAENLKKYFNAGHSDVADNGTLFLGILKNWKEESDRKIMQSQIVSFYFKLFKNFKDDQSIQKSVETIKEDMNVKFFNSNKKKRDDFEKLTNYSVTDLNVQRKAIHELIQVMAELSPAAKTGKRKRSQMLFRG
- outcome measures (FXN [8]): failure to show any improvement
